Source: patent EP0982317A1, “Bivalent inhibitors of the proteasome” (Max-Planck-Gesellschaft zur Förderung der Wissenschaften …, priority 1998, dated 2000)
Like-named read-outs stand apart in the source and are kept apart here. Where a SMILES comes first, the peptide text is derived from it. [ ]: non-standard residue; d: D form. Nle = CCCC[C@H](N)C(=O)O

Legend:
Type in all cases: biochemical
[1] = target: T1, yeast proteasome β2/β2' (trypsin-like activity) (Saccharomyces cerevisiae, UniProt P25043); experiment: Proteasome assay, trypsin-like activity (fluorogenic substrate Bz-Phe-Val-Arg-AMC); parameters: Three of the seven different β-type subunits are processed at the threonine-1 residue; details: 5.56 nM proteasome, Tris-buffer pH 7.5, incubated with inhibitor 1 h at 37°C, Bz-Phe-Val-Arg-AMC 8 µM, read-out: Inhibition of yeast proteasome (IC50) β2/β2'
Procedure: (§1) A solution of proteasome from Saccharomyces cerivisiae in Tris-buffer (pH 7.5; 450 µl; 6.67 nM for PGPH, 5.56 nM for trypsin-like and 1.11 nM for chymotrypsin-like activity) was incubated with the inhibitors at varying concentrations ([…]) for 1 h at 37°C. The fluorogenic substrates for PGPH (Z-Leu-Leu-Gly-βNA, 40 µM), trypsin-like (Bz-Phe-Val-Arg-AMC, 8 µM) and chymotrypsin-like assays (Suc-Leu-Leu-Val-Tyr-AMC, 8 µM) were dissolved in the same Tris-buffer with a minimum amount of DMSO and added to the enzyme solution at 37 °C to reach a final volume of 500 µl. Fluorescence excitation/emission wavelengths were 360 nm/460 nm for AMC and 335 nm/410 nm for βNA. The rates of hydrolysis were monitored by the fluorescence increase and the initial linear portions of curves (100-300 sec) were used to calculate the IC50 values.

[2] = target: T2, yeast proteasome β1/β1' (PGPH) (Saccharomyces cerevisiae, UniProt P38624); experiment: Proteasome assay, PGPH activity (fluorogenic substrate Z-Leu-Leu-Gly-βNA); details: 6.67 nM proteasome, Tris-buffer pH 7.5, incubated with inhibitor 1 h at 37°C, Z-Leu-Leu-Gly-βNA 40 µM, read-out: Inhibition of yeast proteasome (IC50) β1/β1'
Procedure: as §1

[3] = target: T3, yeast proteasome β5/β5' (chymotrypsin-like activity) (Saccharomyces cerevisiae, UniProt P30656); experiment: Proteasome assay, chymotrypsin-like activity (fluorogenic substrate Suc-Leu-Leu-Val-Tyr-AMC); parameters: Three of the seven different β-type subunits are processed at the threonine-1 residue; details: 1.11 nM proteasome, Tris-buffer pH 7.5, incubated with inhibitor 1 h at 37°C, Suc-Leu-Leu-Val-Tyr-AMC 8 µM, read-out: Inhibition of yeast proteasome (IC50) β5/β5'
Procedure: as §1

[4] = target: T2, yeast proteasome β1/β1' (PGPH); experiment: Proteasome assay, PGPH activity (fluorogenic substrate Z-Leu-Leu-Gly-βNA); parameters: endogenous in cells; host or cells: Saccharomyces cerevisiae (isolated native complex; purification, strain and supplier not described); details: 6.67 nM proteasome, Tris-buffer pH 7.5, incubated with inhibitor 1 h at 37°C, Z-Leu-Leu-Gly-βNA 40 µM, read-out: Inhibition of yeast proteasome (IC50) β1/β1'
Procedure: as §1

[5] = target: T1, yeast proteasome β2/β2' (trypsin-like activity); experiment: Proteasome assay, trypsin-like activity (fluorogenic substrate Bz-Phe-Val-Arg-AMC); parameters: endogenous in cells; host or cells: Saccharomyces cerevisiae (isolated native complex; purification, strain and supplier not described); details: 5.56 nM proteasome, Tris-buffer pH 7.5, incubated with inhibitor 1 h at 37°C, Bz-Phe-Val-Arg-AMC 8 µM, read-out: Inhibition of yeast proteasome (IC50) β2/β2'
Procedure: as §1

[6] = target: T3, yeast proteasome β5/β5' (chymotrypsin-like activity); experiment: Proteasome assay, chymotrypsin-like activity (fluorogenic substrate Suc-Leu-Leu-Val-Tyr-AMC); parameters: endogenous in cells; host or cells: Saccharomyces cerevisiae (isolated native complex; purification, strain and supplier not described); details: for IC50: chymotrypsin-like activity, 1.11 nM proteasome, Tris-buffer pH 7.5, incubated with inhibitor 1 h at 37°C, Suc-Leu-Leu-Val-Tyr-AMC 8 µM, read-out: Inhibition of yeast proteasome (IC50) β5/β5'
Procedure: as §1

Row | Molecule | IC50 [1] [µM] | IC50 [2] [µM] | IC50 [3] [µM] | IC50 [4] [µM] | IC50 [5] [µM] | IC50 [6] [µM] | increase in binding affinity ([6]; chymotryptic activity, compared to inhibitor 1 or to the monovalent inhibitor 2)
1 | CCCC[C@@H](C=O)NC(=O)[C@H](CC(C)C)NC(=O)[C@H](CC(C)C)NC(C)=O [Inhibitor 1, Ac-Leu-Leu-Nle-H] (Ac-Leu-Leu-[Nle]-aldehyde) | > 100 | > 100 | 2.1 |  |  |  | 
2 | (PEG)18-25-[NH-CO-(CH2)2-CO-Leu-Leu-Nle-H]2 [Inhibitor 3] |  |  |  | > 100 | > 100 | 0.017 | about two orders of magnitude
3 | HOOC-(CH2)2-CO-NH-(PEG)18-25-NH-(CH2)2-CO-Leu-Leu-Nle-H [Inhibitor 2] |  |  |  | > 100 | > 100 | 1.8 | 
